Results: patent US7572903B1, “Method of regulation of bacterial persister status” (priority 2005, dated 2009)
Where two headings read alike, the source gives them in different places. Bridge positions count the residues as written; N and C are the ends. Square brackets hold non-standard residues; d marks the D form. Peptide text beside a SMILES is read from it. * marks the point of attachment. Ileψ(thiazoline)Cys = CC[C@H](C)[C@H](N)C1=N[C@H](C(=O)*)CS1; dOrn = NCCC[C@@H](N)C(=O)O

Key:
Assay type in all cases: cell-based, Escherichia coli
[1] = tested on: E. coli K-12 C600::mTn5gusA-pgfp21; conditions: mid-log phase
Experimental: In the latter set of experiments reaction mixtures included nutrient broth (25% normal strength) in order to facilitate growth during the exposure. […] At various time intervals samples (0.1 mL) were removed and serially diluted either in sterile phosphate buffered saline (pH 7, 0.1M) or lecithin (2% w/v)—tween 80 (3% w/v) broth as a specific neutralizer of quaternary ammonium biocides (Wright, et al., J. App. Bacterial. 62:309-314, 1986). Samples of appropriate dilutions were plated, in triplicate, onto nutrient agar and colonies counted after 16 hour incubation at 37° C. Survival was expressed relative to untreated control suspensions.
(§1) When cells were required for culture and/or susceptibility determinations collections were made of discrete fractions of cells within the upper 1 and 5%, and the lower 1, 5 and 10% of fluorescence intensity. Control populations consisted of the entire population of cells having been passed through the cytometer and sorter. Cell sort rates of circa 10^3/sec were deployed enabling collection of circa 10^4-5 cfu within 10 minutes. Cell concentrations were adjusted from the cytometer count by dilution with fresh PBS. Suspensions of collected cells were used immediately for microbiological analysis.
Collections of poorly fluorescent cells from mid-log phase cultures were made and susceptibility re-determined towards tetradecylbenzalkonium chloride, and towards various other treatment agents.

[2] = tested on: E. coli K-12 C600::mTn5gusA-pgfp21; experiment: Time-dependent survival of FACS-sorted fractions exposed to tetradecylbenzalkonium chloride
Experimental: In the latter set of experiments reaction mixtures included nutrient broth (25% normal strength) in order to facilitate growth during the exposure. This was necessary in order to get adequate killing by β-lactam antibiotics. At various time intervals samples (0.1 mL) were removed and serially diluted either in sterile phosphate buffered saline (pH 7, 0.1M) or lecithin (2% w/v)—tween 80 (3% w/v) broth as a specific neutralizer of quaternary ammonium biocides (Wright, et al., J. App. Bacterial. 62:309-314, 1986). Samples of appropriate dilutions were plated, in triplicate, onto nutrient agar and colonies counted after 16 hour incubation at 37° C. Survival was expressed relative to untreated control suspensions.
as §1
The FACS vantage was also deployed to separate populations of cells, from stationary phase cultures, corresponding to the lower (1, 5 and 10%) fluorescence intensity cells and the upper (1 and 5%) fluorescence intensity cells (FIG. 1). These cells were immediately subjected to exposure to tetradecyl-benzalkonium chloride (3.68 μg/mL) for various times up to 20 minutes. After neutralization in lecithin-tween 80 broth the numbers of surviving cells was determined by plate count. In all instances the shapes of the survival curves were non-linear indicating an initial rapid phase of killing followed by a plateau phase. […] Survival beyond 10 minutes exposure therefore reflected the presence of non-susceptible cells.

[3] = tested on: E. coli CC118 overexpression and suppression mutants; experiment: Antimicrobial susceptibility of conditional overexpression and antisense suppression strains (cetrimide challenge); conditions: relative to parental E. coli CC118, 9 μg/ml cetrimide 1 h
Experimental: Conditional overexpression and anti-sense suppression strains of E. coli (Table 14) were grown as liquid cultures in nutrient broth. Expression of target sense and antisense sequences was induced by addition of IPTG (Bioline), during early exponential phase, to a final concentration of 0.1 mM. Cells were grown until mid-late exponential (1.75 h after IPTG addition) or to stationary phase (14.5 h after ITPG addition), and harvested by centrifugation (10,000 x g, 10 min) at 4° C. The supernatants were decanted and the pellets suspended into equal volumes of PBS. The centrifugation and washing steps were repeated twice, after which the pellets were re-suspended in PBS to an optical density (OD470 nm) of 1.0, corresponding to approximately 1-2×10^8 cfu/ml mid-exponential or stationary phase cells.
Cells were exposed to 9 μg/ml cetrimide USP for 1 hr in PBS with final concentration of 5×10^7 cells/ml. Controls without the addition of the biocide containing the same concentration of cells and PBS were run in parallel. Following incubation samples (0.1 ml) were removed and serially diluted in lecithin (2% w/v)—tween 80 (3% w/v) broth as a specific neutralizer of quaternary ammonium biocides (Wright, et al., J. Appd. Bacteriol, 62, 309-314, 1986). Samples of appropriate dilutions were plated, in triplicate, onto nutrient agar and colonies counted after 16 h incubation at 37° C. Survival was expressed relative to untreated control suspensions that were similarly treated with IPTG. […] The susceptibility of the parental strain E. coli (CC118 towards cetrimide USP was investigated in the same experiments and was used as a reference to determine the effect of overexpression and antisense suppression of target sequences.

[4] = tested on: E. coli K-12 C600::mTn5gusA-pgfp21 intergenic knockouts; experiment: Susceptibility of putative intergenic knockouts towards cetrimide USP
Text: Intergenic knockouts were made to E. coli K-12 C600::mTn5gusA-pgfp21 with respect to IG216, IG477, IG870, IG873, IG1602, IG1604 and IG1484 using the protocol described by Datsenko, et al. (Proceedings of the National Academy of Sciences of the United States of America 97, 6640-6645, 2000). Plasmid pKD3 was used as a template to generate PCR products with a selectable antibiotic resistance marker (chloramphenicol) and 40 nt homology extensions relating the genes flanking each targeted intergenic region. Modifications of the method included a 10-fold increase in the concentration of L-arabinose (10 mM) for induction of λ Red genes in the helper plasmid pKD46, and 50-fold increases in the amount of PCR product (500 ng) used to transform E. coli K-12 C600 containing pKD46. Further amendments to the method were associated with recovery of transformants following electroporation. […]
Putative intergenic knockouts were grown as liquid culture in nutrient broth, harvested at mid-exponential phase, washed in PBS as described in section 2.1 (a) and adjusted to 1×10^5 cfu/ml in PBS. […] The viability of cells in the antimicrobial and control tubes was monitored after 1 hour incubation at 37° C. at 200 rpm in an orbital shaker. […]

## NCC[C@H](O)C(=O)N[C@@H]1C[C@H](N)[C@@H](O[C@H]2O[C@H](CN)[C@@H](O)[C@H](O)[C@H]2O)[C@H](O)[C@H]1O[C@H]1O[C@H](CO)[C@@H](O)[C@H](N)[C@H]1O [Amikacin, amikacin]
[1]; 0-5% FI fraction, amikacin 0.75 μg/ml, 1 hour, SD in parenthesis
  percentage survival relative to untreated controls: 68 (17) %
[1]; 95-100% FI fraction, amikacin 0.75 μg/ml, 1 hour, SD in parenthesis
  percentage survival relative to untreated controls: 32 (0) %
[1]; Control 0-100% fluorescence fraction, amikacin 0.75 μg/ml, 1 hour, SD of triplicate in parenthesis
  percentage survival relative to untreated controls: 39 (3.0) %

## CC[C@H](C)[C@H](N)C1=N[C@H](C(=O)N[C@@H](CC(C)C)C(=O)N[C@H](CCC(=O)O)C(=O)N[C@H](C(=O)N[C@H]2CCCCNC(=O)[C@H](CC(N)=O)NC(=O)[C@@H](CC(=O)O)NC(=O)[C@H](Cc3cnc[nH]3)NC(=O)[C@@H](Cc3ccccc3)NC(=O)[C@H]([C@@H](C)CC)NC(=O)[C@@H](CCCN)NC2=O)[C@@H](C)CC)CS1 [Bacitracin, bacitracin] ({Ileψ(thiazoline)Cys}-L[dE]IK[dOrn]I[dF]H[dD]N; lactam 4-C)
[1]; 0-5% FI fraction, bacitracin 0.7 mg/ml, 40 min, SD in parenthesis
  percentage survival relative to untreated controls: 83 (1.5) %
[1]; 95-100% FI fraction, bacitracin 0.7 mg/ml, 40 min, SD in parenthesis
  percentage survival relative to untreated controls: 34 (4.6) %
[1]; Control 0-100% fluorescence fraction, bacitracin 0.7 mg/ml, 40 min, SD in parenthesis
  percentage survival relative to untreated controls: 57 (8.5) %

## O=C(O)c1cn(C2CC2)c2cc(N3CCNCC3)c(F)cc2c1=O [Ciprofloxacin, ciprofloxacin]
[1]; 0-5% FI fraction, ciprofloxacin 0.05 μg/ml, 1 hour, SD in parenthesis
  percentage survival relative to untreated controls: 44 (2.0) %
[1]; 95-100% FI fraction, ciprofloxacin 0.05 μg/ml, 1 hour, SD in parenthesis
  percentage survival relative to untreated controls: 35 (3.6) %
[1]; Control 0-100% fluorescence fraction, ciprofloxacin 0.05 μg/ml, 1 hour, SD in parenthesis
  percentage survival relative to untreated controls: 40 (0) %

## Tetradecylbenzalkonium chloride
[2]; least intensely fluorescent cell fraction (1%), stationary phase, 3.68 μg/mL, exposure up to 20 minutes
  proportion of persister cells in the cell fraction: > 80%
[2]; most fluorescently intense cells, stationary phase, 3.68 μg/mL, after 1 minute exposure
  survival of cells: eradicated beyond detection
[2]; poorly fluorescent cells from mid-log phase cultures
  proportion of persisters in mid-log phase compared with stationary phase: substantially reduced

## cetrimide [Cetrimide USP]
[3]; strain lit (+), exponential phase, IPTG 0.1 mM 1.75 h
  Fold Change in persister fraction (fold increase): 3.05 fold
[3]; strain lit (−), exponential phase, IPTG 0.1 mM 1.75 h
  Fold Change in persister fraction (fold increase): 1.31 fold
[3]; strain lit (−), stationary phase, IPTG 0.1 mM 14.5 h
  Fold Change in persister fraction (fold decrease): 4.08 fold decrease
[3]; strain mcrA (+), exponential phase, IPTG 0.1 mM 1.75 h
  Fold Change in persister fraction (fold increase): 2.82 fold
[3]; strain pin (+), exponential phase, IPTG 0.1 mM 1.75 h
  Fold Change in persister fraction (fold increase): 10.38 fold
[3]; strain pin (−), exponential phase, IPTG 0.1 mM 1.75 h
  Fold Change in persister fraction (fold increase): 18.98 fold
[3]; strain pin (−), stationary phase, IPTG 0.1 mM 14.5 h
  Fold Change in persister fraction: No persisters detected
[3]; strain yagL (+), exponential phase, IPTG 0.1 mM 1.75 h
  Fold Change in persister fraction (fold decrease): 1.01 fold
[3]; strain ykgK (+), exponential phase, IPTG 0.1 mM 1.75 h
  Fold Change in persister fraction (fold increase): 22.85 fold
[3]; strain ykgK (−), exponential phase, IPTG 0.1 mM 1.75 h
  Fold Change in persister fraction (fold decrease): 5.35 fold
[3]; strain ykgK (−), stationary phase, IPTG 0.1 mM 14.5 h
  Fold Change in persister fraction: No persisters detected
[3]; strain ykgM (+), exponential phase, IPTG 0.1 mM 1.75 h
  Fold Change in persister fraction (fold decrease): 1.65 fold
[3]; strain ykgM (−), exponential phase, IPTG 0.1 mM 1.75 h
  Fold Change in persister fraction (fold decrease): 1.83 fold
[3]; strain ykgM (−), stationary phase, IPTG 0.1 mM 14.5 h
  Fold Change in persister fraction: No persisters detected
[4]; IG216, IG873, IG1484 and IG1602 knockouts, at both the lower and higher treatment level
  susceptibility of intergenic knockout clones compared with controls: profoundly changed
[4]; all developed clones (IG216, IG477, IG870, IG873, IG1602, IG1604, IG1484), 0.6 and 2.0 μg/ml, 1 hour
  susceptibility of intergenic knockout clones compared with controls: substantially reduced
[1]; 0-5% FI fraction, cetrimide USP 0.5 μg/ml, 1 hour, SD in parenthesis
  percentage survival relative to untreated controls: 22 (3.7) %
[1]; 95-100% FI fraction, cetrimide USP 0.5 μg/ml, 1 hour, SD in parenthesis
  percentage survival relative to untreated controls: 2.5 (0.97) %
[1]; Control 0-100% fluorescence fraction, cetrimide USP 0.5 μg/ml, 1 hour, SD in parenthesis
  percentage survival relative to untreated controls: 18 (3.4) %
